{
  "source": "patent US20090061513A1",
  "about": "“Cell sorting and cell cultivation methods” (PicoVitro AB, priority 2007, published 2009)",
  "tested_on": "doxorubicin resistant sub line RPMI8226Dox40",
  "experiment": "Single cell seeding and cultivation in microplate with doxorubicin-spiked growth medium (drug resistance screening), resistant cells",
  "format": "cell-based, human",
  "conditions": "6 days of incubation, resistant vs sensitive cells",
  "method": "The clean plates and semi-permeable top membranes were autoclaved for 20 min at 121° C. to obtain a sterile cell culture environment. An excess of recommended growth medium was added to the plate, and manually distributed evenly to all wells by an autoclaved hand scraper (VWR) or sterile cell scrapers (Falcon, for one-time use only). Then, automatic single cell seeding into predefined wells of the microplate was carried out using the FACS. A motorized x/y-stage combined with the software CloneCyt Plus (BD Biosciences) was used to control the exact position of every cell sorted in the plate. Selection of the cells to be seeded was performed based on their individual FSC/SSC (forward scatter/side scatter) properties (i.e. size and granularity). The cells were analyzed at a rate of approximately 100 cells/s. A representative set of cells was sought, meaning that all viable cells in the sample were selected for seeding into the plate. The cells were sorted directly from recommended growth medium in concentrations ranging from 10^5-10^6 cells/ml. FACS Clean solution (BD Biosciences) was let through the fluidics of the FACS prior to experiments to obtain sterility. The x/y-stage and the surrounding of the fluidics outlet was cleaned with 70% EtOH. During analysis, sterile 0.25×PBS was used as sheath buffer. […]",
  "data": [
    {"smiles": "COc1cccc2c1C(=O)c1c(O)c3c(c(O)c1C2=O)C[C@@](O)(C(=O)CO)C[C@@H]3O[C@H]1C[C@H](N)[C@H](O)[C@H](C)O1", "note": "[Doxorubicin, doxorubicin]", "values": [
      {"measurement": "Proliferation at higher drug concentrations", "value": "only resistant cells can proliferate at higher drug concentrations"}
    ]}
  ]
}
